Values quoted from earlier work in patent US20140178456A1, “METHODS AND COMPOSITIONS FOR TREATING TYPE 2 DIABETES AND RELATED CONDITIONS” (priority 2012, published 2014).
Structures can show the parent of a compound that is named as a salt.

| peak plasma concentration (oral administration of 8 mg rosiglitazone maleate) | SMILES | peak plasma concentration of pioglitazone and its active metabolites (oral administration of 30 mg pioglitazone) |
| --- | --- | --- |
|  | CCc1ccc(CCOc2ccc(CC3SC(=O)NC3=O)cc2)nc1 (centres unmarked) [pioglitazone] | about 146 μg per liter |
| about 46114 per liter | CN(CCOc1ccc(CC2SC(=O)NC2=O)cc1)c1ccccn1 (centres unmarked) [rosiglitazone maleate] |  |
